According to ChEMBL document CHEMBL3885861, “Open TG-GATES”:

Species on record: Rattus norvegicus
Test: Open TG-GATES - Regimen: Daily Repeat
Assay type: toxicity, organism-based, Sprague-Dawley
Design: regimen Daily Repeat, gender Male, age 6 weeks
Details: in vivo, po, 0 mg/kg, route gavage, dose level Control; for APTT / Bas / Eos / Fbg / Hb / Ht / Lym / MCH / MCHC / MCV / Mono / Neu / PT / Plat / RBC / Ret / WBC: tissue Blood; for KIDNEY_L / KIDNEY_R / KIDNEY_TOTAL: tissue Kidney; for LIVER: tissue Liver; for A/G / ALP / ALT / AST / BUN / CRE / Ca / Cl / DBIL / GLC / IP / K / LDH / Na / PL / RALB / TBIL / TC / TG / TP / gamma-GTP: tissue Plasma

CC[C@H]1[C@@H]2C[C@H]3[C@@H]4N(C)c5ccccc5[C@]45C[C@@H]([C@@H]2[C@H]5O)N3[C@@H]1O [AJMALINE]
TERMINAL_BW (72 h, time 3 day): 211 g | APTT (72 h, time 3 day): 16.4 s | Bas (72 h, time 3 day): 0% | Eos (72 h, time 3 day): 1% | Fbg (72 h, time 3 day): 218.4 mg/dL | Hb (72 h, time 3 day): 13 g/dL | Ht (72 h, time 3 day): 40.1% | Lym (72 h, time 3 day): 75.8% | MCH (72 h, time 3 day): 21.1 pg | MCHC (72 h, time 3 day): 32.4% | MCV (72 h, time 3 day): 65 fL | Mono (72 h, time 3 day): 10.4% | Neu (72 h, time 3 day): 13% | PT (72 h, time 3 day): 11.6 s | Plat (72 h, time 3 day): 115.1 x10_4/uL | RBC (72 h, time 3 day): 617.4 x10_4/ul | Ret (72 h, time 3 day): 8% | WBC (72 h, time 3 day): 104.3 x10_2/uL | KIDNEY_L (72 h, time 3 day): 0.9 g | KIDNEY_R (72 h, time 3 day): 1 g | KIDNEY_TOTAL (72 h, time 3 day): 1.9 g | LIVER (72 h, time 3 day): 10.3 g | A/G (72 h, time 3 day): 2.2 | ALP (72 h, time 3 day): 1003.6 IU/L | ALT (72 h, time 3 day): 37 IU/L | AST (72 h, time 3 day): 63.8 IU/L | BUN (72 h, time 3 day): 19.4 mg/dL | CRE (72 h, time 3 day): 0.5 mg/dL | Ca (72 h, time 3 day): 11.1 mg/dL | Cl (72 h, time 3 day): 102.8 meq/L | DBIL (72 h, time 3 day): 0.008 mg/dL | GLC (72 h, time 3 day): 199.8 mg/dL | IP (72 h, time 3 day): 7.4 mg/dL | K (72 h, time 3 day): 4.5 meq/L | LDH (72 h, time 3 day): 87.6 IU/L | Na (72 h, time 3 day): 140 meq/L | PL (72 h, time 3 day): 152.6 mg/dL | RALB (72 h, time 3 day): 3.9 g/dL | TBIL (72 h, time 3 day): 0.3 mg/dL | TC (72 h, time 3 day): 79.4 mg/dL | TG (72 h, time 3 day): 101.4 mg/dL | TP (72 h, time 3 day): 5.8 g/dL | gamma-GTP (72 h, time 3 day): 1.8 IU/L | TERMINAL_BW ([…], time 7 day): 249.2 g | TERMINAL_BW ([…], time 14 day): 302.2 g | TERMINAL_BW ([…], time 28 day): 382 g | APTT ([…], time 7 day): 16.1 s | Bas ([…], time 7 day): 0% | Eos ([…], time 7 day): 1% | Fbg ([…], time 7 day): 220.4 mg/dL | Hb ([…], time 7 day): 13 g/dL | Ht ([…], time 7 day): 39.8% | Lym ([…], time 7 day): 82.2% | MCH ([…], time 7 day): 20.6 pg | MCHC ([…], time 7 day): 32.6% | MCV ([…], time 7 day): 63.3 fL | Mono ([…], time 7 day): 5% | Neu ([…], time 7 day): 12.2% | PT ([…], time 7 day): 11.2 s | Plat ([…], time 7 day): 125.7 x10_4/uL | RBC ([…], time 7 day): 629.6 x10_4/ul | Ret ([…], time 7 day): 7% | WBC ([…], time 7 day): 107.8 x10_2/uL | APTT ([…], time 14 day): 17.8 s | Bas ([…], time 14 day): 0% | Eos ([…], time 14 day): 0.8% | Fbg ([…], time 14 day): 211.6 mg/dL | Hb ([…], time 14 day): 13.6 g/dL | Ht ([…], time 14 day): 41.6% | Lym ([…], time 14 day): 84.6% | MCH ([…], time 14 day): 20.6 pg | MCHC ([…], time 14 day): 32.9% | MCV ([…], time 14 day): 62.5 fL | Mono ([…], time 14 day): 4% | Neu ([…], time 14 day): 11% | PT ([…], time 14 day): 11.4 s | Plat ([…], time 14 day): 121.9 x10_4/uL | RBC ([…], time 14 day): 664.2 x10_4/ul | Ret ([…], time 14 day): 3.8% | WBC ([…], time 14 day): 121.7 x10_2/uL | APTT ([…], time 28 day): 17.6 s | Bas ([…], time 28 day): 0% | Eos ([…], time 28 day): 1.2% | Fbg ([…], time 28 day): 226.2 mg/dL | Hb ([…], time 28 day): 15.2 g/dL | Ht ([…], time 28 day): 45.3% | Lym ([…], time 28 day): 83.8% | MCH ([…], time 28 day): 19.1 pg | MCHC ([…], time 28 day): 33.5% | MCV ([…], time 28 day): 57 fL | Mono ([…], time 28 day): 5.6% | Neu ([…], time 28 day): 9.6% | PT ([…], time 28 day): 11.4 s | Plat ([…], time 28 day): 125.9 x10_4/uL | RBC ([…], time 28 day): 794.6 x10_4/ul | Ret ([…], time 28 day): 2% | WBC ([…], time 28 day): 105.2 x10_2/uL | KIDNEY_L ([…], time 7 day): 1 g | KIDNEY_R ([…], time 7 day): 1.1 g | KIDNEY_TOTAL ([…], time 7 day): 2.1 g | KIDNEY_L ([…], time 14 day): 1.2 g | KIDNEY_R ([…], time 14 day): 1.3 g | KIDNEY_TOTAL ([…], time 14 day): 2.5 g | KIDNEY_L ([…], time 28 day): 1.4 g | KIDNEY_R ([…], time 28 day): 1.4 g | KIDNEY_TOTAL ([…], time 28 day): 2.9 g | LIVER ([…], time 7 day): 12.3 g | LIVER ([…], time 14 day): 13.9 g | LIVER ([…], time 28 day): 16.5 g | A/G ([…], time 7 day): 1.9 | ALP ([…], time 7 day): 1031.8 IU/L | ALT ([…], time 7 day): 37.4 IU/L | AST ([…], time 7 day): 67 IU/L | BUN ([…], time 7 day): 18.4 mg/dL | CRE ([…], time 7 day): 0.5 mg/dL | Ca ([…], time 7 day): 11.1 mg/dL | Cl ([…], time 7 day): 104.2 meq/L | DBIL ([…], time 7 day): 0.004 mg/dL | GLC ([…], time 7 day): 206.8 mg/dL | IP ([…], time 7 day): 7.9 mg/dL | K ([…], time 7 day): 4.4 meq/L | LDH ([…], time 7 day): 80.4 IU/L | Na ([…], time 7 day): 142.4 meq/L | PL ([…], time 7 day): 154 mg/dL | RALB ([…], time 7 day): 3.7 g/dL | TBIL ([…], time 7 day): 0.3 mg/dL | TC ([…], time 7 day): 79.8 mg/dL | TG ([…], time 7 day): 126.4 mg/dL | TP ([…], time 7 day): 5.7 g/dL | gamma-GTP ([…], time 7 day): 1.2 IU/L | A/G ([…], time 14 day): 1.9 | ALP ([…], time 14 day): 756.6 IU/L | ALT ([…], time 14 day): 31 IU/L | AST ([…], time 14 day): 61.4 IU/L | BUN ([…], time 14 day): 20.6 mg/dL | CRE ([…], time 14 day): 0.5 mg/dL | Ca ([…], time 14 day): 10.9 mg/dL | Cl ([…], time 14 day): 104.2 meq/L | DBIL ([…], time 14 day): 0.008 mg/dL | GLC ([…], time 14 day): 206 mg/dL | IP ([…], time 14 day): 7.2 mg/dL | K ([…], time 14 day): 4.9 meq/L | LDH ([…], time 14 day): 90.6 IU/L | Na ([…], time 14 day): 141.6 meq/L | PL ([…], time 14 day): 148.4 mg/dL | RALB ([…], time 14 day): 3.8 g/dL | TBIL ([…], time 14 day): 0.3 mg/dL | TC ([…], time 14 day): 69.4 mg/dL | TG ([…], time 14 day): 126 mg/dL | TP ([…], time 14 day): 5.8 g/dL | gamma-GTP ([…], time 14 day): 1.4 IU/L | A/G ([…], time 28 day): 1.9 | ALP ([…], time 28 day): 557 IU/L | ALT ([…], time 28 day): 29.8 IU/L | AST ([…], time 28 day): 57.6 IU/L | BUN ([…], time 28 day): 19.4 mg/dL | CRE ([…], time 28 day): 0.6 mg/dL | Ca ([…], time 28 day): 10.3 mg/dL | Cl ([…], time 28 day): 105.2 meq/L | DBIL ([…], time 28 day): 0.016 mg/dL | GLC ([…], time 28 day): 195 mg/dL | IP ([…], time 28 day): 6.3 mg/dL | K ([…], time 28 day): 4.7 meq/L | LDH ([…], time 28 day): 78.2 IU/L | Na ([…], time 28 day): 142.6 meq/L | PL ([…], time 28 day): 139 mg/dL | RALB ([…], time 28 day): 4 g/dL | TBIL ([…], time 28 day): 0.3 mg/dL | TC ([…], time 28 day): 62.6 mg/dL | TG ([…], time 28 day): 136.4 mg/dL | TP ([…], time 28 day): 6.2 g/dL | gamma-GTP ([…], time 28 day): 1.6 IU/L
